# Values joined by “and” are separate entries in the source; they are usually repeats but may differ in a detail not shown here. Equal entries are not always repeated.
# B1: RANIBIZUMAB: antibody fragment inhibiting all isoforms of VEGF-A (antibody, chains of the INN, looked up, V domains shown)
# VH: EVQLVESGGGLVQPGGSLRLSCAASGYDFTHYGMNWVRQAPGKGLEWVGWINTYTGEPTYAADFKRRFTFSLDTSKSTAYLQMNSLRAEDTAVYYCAKYPYYYGTSHWYFDVWGQGTLVTVSS
# VL: DIQLTQSPSSLSASVGDRVTITCSASQDISNYLNWYQQKPGKAPKVLIYFTSSLHSGVPSRFSGSGSGTDFTLTISSLQPEDFATYYCQQYSTVPWTFGQGTKVEIK
# modifications: Fab
# Key:
# [1] = test system: experimental autoimmune encephalomyelitis; settings: 0.1 mg/kg p.o. or higher doses; cited from earlier work
# peripheral lymphocytes = settings: single oral dose; cited from earlier work
# COLO205 tumor = assay: SC COLO205 colorectal tumor xenograft; type: in vivo, nude NCr (nu/nu) mice; settings: LT1009 50 mg/kg ip q3d; Avastin 40 mg/kg iv q7d; Paclitaxel 15 mg/kg iv q1d×5
# Method: Nude mice were implanted sc near the right flank with one fragment per mouse of COLO 205 tumor from an in vivo passage. All treatments were initiated the day when 60 mice in each experiment established tumors ranging in size from approximately 100 to 200 mm3. […] Avastin was administered iv at a dosage of 40 mg/kg/dose on a q7d schedule, injected in a volume of 0.1 mL/20 g body weight. Paclitaxel (positive control), was administered iv at a dosage of 15 mg/kg/dose on a q1d×5 schedule, injected in a volume of 0.1 mL/10 g body weight.
# (§1) Animals were observed daily for mortality. Tumor dimensions and body weights were collected twice weekly starting with the first day of treatment and including the day of study termination. When the median tumor in the vehicle-treated control group in each study reached approximately 4,000 mg, the study was terminated. Tumors from each animal were harvested, wet weights were recorded, tumors were processed for determination of microvascular densities (MVD) by CD-31 staining. Tumor weights (mg) were calculated using the equation for an ellipsoid sphere (l×w^2)/2=mm^3, where l and w refer to the larger and smaller dimensions collected at each measurement and assuming unit density (1 mm^3=1 mg).
# DU145 tumor = assay: SC DU145 prostate tumor xenograft; type: in vivo, nude NCr (nu/nu) mice; settings: LT1009 50 mg/kg ip q2d; Avastin 20 mg/kg q4d; Paclitaxel 7.5 mg/kg q1d×5
# Method: Nude mice were implanted sc near the right flank with one fragment per mouse of DU145 tumor from an in vivo passage. All treatments were initiated the day when 60 mice in each experiment established tumors ranging in size from approximately 100 to 200 mm^3. […] Paclitaxel and Avastin were administered iv and ip at a dosage of 7.5 mg/kg/dose and 20 mg/kg/dose, q1d×5 and q4d, respectively, injected in a volume of 0.1 mL/10 g body weight.
# During the course of the study tumor growth was monitored by measuring the sc tumors on three axes and calculating the volume. At the end of the study final tumor weights and volumes were determined and then the mice were sacrificed, the tumors harvested. Microvascular densities (MVD) of the tumors were then determined by CD-31 staining.
# RPMI 8226 tumor = assay: RPMI 8226 human myeloma tumor xenograft; type: in vivo, CB17 SCID mice; settings: LT1009 50 mg/kg IP Q3D to end; Bortezomib iv Q3D×6
# Method: Nude mice (CB17 SCID, aged 4-5 weeks, weight 18-22 gm, female mice obtained from Harlan) were injected sc with RPMI 8226 cells harvested from tissue culture (˜1×10^7 cells/mouse). When tumors grew to approximately 100 mm^3 in size, animals were pair-matched by tumor size into treatment and control groups (10 mice per group). Initial dosing began Day 1 following pair-matching. Animals in all groups were dosed by weight (0.01 ml per gram; 10 ml/kg). […] Bortezomib was administered by intravenous injection via tail vein once every three days for six treatments (Q3D×6).
# Individual and group mean tumor volumes±SEM are recorded twice weekly until study completion beginning Day 1. Final mean tumor volume±SEM for each group are reported at study completion; animals experiencing partial or complete tumor regressions or animals experiencing technical or drug-related deaths are censored from these calculations.
# HT29 tumor = assay: SC HT29 colorectal tumor xenograft; type: in vivo, athymic NCr-nu/nu mice; settings: LT1009 50 mg/kg ip q2d; Avastin 20 mg/kg iv q4d; 5-FU 75 mg/kg ip q4d
# Method: Nude mice were implanted sc near the right flank with one fragment per mouse of HT29 tumor from an in vivo passage. All treatments were initiated the day when 60 mice in each experiment established tumors ranging in size from approximately 100 to 200 mm^3. There were ten mice per treatment group. […] 75 mg/kg 5-FU and 20 mg/kg Avastin were administered ip and iv at a dosage of 75 mg/kg/dose and 20 mg/kg/dose, respectively, q4d, injected in a volume of 0.1 mL/10 g body weight.
# as §1, with “recorded, and” for “recorded,”, “MVD” for “microvascular densities (MVD)”
# HUVECs = assay: HUVEC Matrigel chemoinvasion (migration) assay; type: cell-based, human; settings: 0.1-1 μM S1P
# Method: FIG. 5 has two panels, A and B. In panel A, S1P is shown to promote neovascularization through induction of HUVECs tube formation and migration, which is reduced by SPHINGOMAB. […] The number of cells that migrated to the Matrigel membrane were counted in five independent fields.
# Experiments were performed as described by Visentin et al. (Cancer Cell 2006 March; 9(3):225-38).
# [2] = test system: Matrigel plug neovascularization; assay: In vivo Matrigel plug assay for neovascularization (S1P, VEGF, bFGF); design: species or system mice; settings: Matrigel with 1 μM S1P
# Method: Based on in vivo studies showing that S1P increased endothelial capillary growth into subcutaneously implanted Matrigel plugs, we speculated that SPHINGOMAB could reduce de novo BV formation in vivo. To investigate this, we employed the in vivo Matrigel Plug assay for neovascularization. In one set of experiments, Matrigel was supplemented with either 1 μM S1P, 0.5 μg/mL bFGF or 1 μg/mL VEGF and then […]. into mice (n=4). After 10 days, the mice were heparinized and injected with the fluorescent lectin, Isolectin B4-FITC, which binds to adhesion molecules expressed by vascular EC that form the growing BVs. The plugs were then excised, frozen in OCT, sectioned and viewed for FITC-stained BVs.
# Sections of the plugs were then stained with hemotoxyln & eosin for evaluation of EC infiltration (FIG. 6B). The infiltration of ECs is a critical step in neo-vascularization. […] Cell infiltration is presumed to be ECs although we recognize that other cell types such as immune cells may also be stained.
# Endogenous S1P from the blood and surrounding tissue could supply a wound with pro-angiogenic stimuli. The ability of SPHINGOMAB to reduce endogenous S1P in a wound was investigated. Optimally stimulated plugs (Matrigel supplemented with 0.5 μg/mL bFGF or […] VEGF) were implanted into mice. Mice received i.p. injections of 25 mg/kg SPHINGOMAB or saline every 48 hrs starting 1 day prior to Matrigel implantation. Each treatment group (Matrigel, Matrigel plus GF or Matrigel plus GF and administered SPHINGOMAB) consisted of a minimum of 6 mice. After 10 days, the mice were treated with heparin, injected with Isolectin B4-FITC, the plugs excised, embedded in OCT freezing medium and sectioned.
# [3] = test system: human retinal pigmented epithelial cells; assay: alpha-SMA expression (myofibroblast transformation) in retinal pigmented epithelial cells; type: cell-based
# From the text: (§2) In many of these disorders, circulating growth factors and chemokines promote the transformation of normal ocular cells into fibrocontractile, scar tissue-producing cells that have been termed “myofibroblasts”. Normally, myofibroblasts are responsible for tissue repair as part of the wound healing response following injury. However altered number and function of myofibroblasts are implicated in diseases characterized by pathological scar tissue formation in the liver, skin, lung, kidney, heart and eyes. In the eye, transformation of retinal pigmented epithelial (RPE) cells to a myofibroblast phenotype is linked to formation of fibro-contractile membranes which cause retinal detachment and subsequent vision impairment. In addition, myofibroblast transformation of ocular fibroblasts can result in abnormal scar tissue production after eye injury leading to subsequent vision loss. Although many of the circulating protein factors in the eye that promote myofibroblast formation have been identified, nothing is known regarding the role of lysolipids such as S1P in this process. Therefore, we examined the effects of S1P on myofibroblast transformation of several human ocular cell lines.
# In these experiments, the ability of S1P to promote α-SMA expression differed in a concentration dependent manner between the retinal pigmented epithelial cells and conjunctiva fibroblasts. […]
# [4] = test system: human conjunctiva fibroblasts; assay: alpha-SMA and PAI-1 expression in conjunctiva fibroblasts; type: cell-based
# From the text: as §2
# In these experiments, the ability of S1P to promote α-SMA expression differed in a concentration dependent manner between the retinal pigmented epithelial cells and conjunctiva fibroblasts. […] This difference is believed to result from increased S1P receptor expression in the epithelial cells compared to the fibroblasts. Due to increased S1P receptor expression levels, retinal pigmented epithelial cells are likely more sensitive to S1P at low concentrations. In contrast, at high S1P levels the receptors become […] or possibly even internalized leading to decreased stimulation by S1P.
# Collagen is one of the primary structural proteins that supports all tissues in the body and is one of the main components of scar tissue. In the non-pathological setting, total collagen content within tissue is maintained via a balance between collagen production by fibroblasts and degradation by certain enzymes. […]
# exudative AMD = settings: 2 year MARINA trial and 1 year ANCHOR trial; cited from earlier work
molecule,measurement,setting,value
"CCCCCCCCc1ccc(CCC(N)(CO)CO)cc1.Cl [FTY720, 2-amino-2-(2-[4-octylphenyl]ethyl)-1,3-propanediol hydrochloride]",paralysis in EAE,[1],almost completely prevents paralysis
same,reduction of peripheral lymphocyte counts,peripheral lymphocytes,30-70%
CC(=O)O[C@H]1C(=O)[C@@]2(C)[C@H]([C@H](OC(=O)c3ccccc3)[C@]3(O)C[C@H](OC(=O)[C@H](O)[C@@H](NC(=O)c4ccccc4)c4ccccc4)C(C)=C1C3(C)C)[C@]1(OC(C)=O)CO[C@@H]1C[C@@H]2O [Paclitaxel],% Reduction compared to Vehicle-Treated Mice,COLO205 tumor,100%
same,Final Tumor Weights,COLO205 tumor,0 mg
same,% Reduction compared to Vehicle-Treated Mice,DU145 tumor,80%
same,Final Tumor Weights,DU145 tumor,539 mg
"CC(C)C[C@H](NC(=O)[C@H](Cc1ccccc1)NC(=O)c1cnccn1)B(O)O [Bortezomib, reference compound]",% Reduction compared to Vehicle-Treated Mice,RPMI 8226 tumor,20%
same,Final Tumor Weights,RPMI 8226 tumor,1664 mg
"O=c1[nH]cc(F)c(=O)[nH]1 [5-FU, 5-fluorouracil]",% Reduction compared to Vehicle-Treated Mice,HT29 tumor,28%
same,Final Tumor Weights,HT29 tumor,1963.71 mg
"Avastin: anti-angiogenic drug, bevacizumab (Avastin, Genentech)",% Reduction compared to Vehicle-Treated Mice,COLO205 tumor,35%
same,Final Tumor Weights,COLO205 tumor,1967.90 mg
same,% Reduction compared to Vehicle-Treated Mice,HT29 tumor,30%
same,Final Tumor Weights,HT29 tumor,1927.44 mg
same,% Reduction compared to Vehicle-Treated Mice,DU145 tumor,80% and 79%
same,Final Tumor Weights,DU145 tumor,578 mg
"CCCCCCCCCCCCC/C=C/[C@@H](O)[C@@H](N)COP(=O)(O)O [S1P, sphingosine-1-phosphate]",stimulation of HUVEC migration over non-treated HUVECs,HUVECs,2-2.5 fold
same,increase of EC infiltration in comparison to Matrigel only plugs,[2],3 fold
same,S1P concentration at which a significant increase in α-SMA expression was observed,[3],0.001 µM
same,production of α-Smooth muscle actin (α-SMA),[3],stimulates production
same,PAI-1 expression,[4],stimulates the PAI-1 expression in a dose-dependent manner
same,S1P concentration at which a significant increase in α-SMA expression was observed,[4],10 µM
same,production of α-Smooth muscle actin (α-SMA),[4],stimulates production
B1,patients achieving some visual gain,exudative AMD,approximately 40%

# Reference: patent US8026342B2, “Compositions and methods for binding sphingosine-1-phosphate” (Lpath, Inc., priority 2006, dated 2011)
